These results are taken from PMC12428505, “A Bifunctional SARS-CoV-2 Entry Inhibitor Targeting the Host Protease TMPRSS2 and Viral Spike Protein HR1 Region” (International Journal of Molecular Sciences, 2025).

*1 amine or outer side, *2 acyl side, *3 side chain or, on linkers, in order; H or OH if unused. Where a SMILES comes first, the peptide text is derived from it. [ ]: non-standard residue; d: D form. The star is where a group is joined. PEG24 = NCCOCCOCCOCCOCCOCCOCCOCCOCCOCCOCCOCCOCCOCCOCCOCCOCCOCCOCCOCCOCCOCCOCCOCCOCCC(=O)O; X1 = N=C(N)Nc1ccc(C(=O)Oc2ccc(CC(=O)OCC(=O)*)cc2)cc1; X2 = CN(Cc1cn(CC(=O)[*:2])nn1)[*:1]; X3 = O=C(Cn1cc(CN[*:1])nn1)[*:2]; PEG4 = NCCOCCOCCOCCOCCC(=O)O

The first test deals with wild-type SARS-CoV-2 PsV.
Test: not given
The conditions noted are these: 48 h.
In turn, `CC[C@H](C)[C@H](NC(=O)[C@H](CCCNC(=N)N)NC(=O)[C@H](CCSC)NC(=O)[C@H](CC(C)C)NC(=O)[C@H](CCC(=O)O)NC(=O)[C@H](Cc1ccc(O)cc1)NC(=O)[C@@H](NC(=O)[C@H](CCCCN)NC(=O)[C@H](CCC(N)=O)NC(=O)[C@H](CC(C)C)NC(=O)[C@@H](NC(=O)[C@H](Cc1c[nH]c2ccccc12)NC(=O)[C@H](CCC(=O)O)NC(=O)[C@H](CCCCN)NC(=O)[C@H](CC(=O)O)NC(=O)CCOCCOCCOCCOCCNC(=O)Cn1cc(CN(C)C(=O)COC(=O)Cc2ccc(OC(=O)c3ccc(NC(=N)N)cc3)cc2)nn1)[C@@H](C)CC)[C@@H](C)CC)C(=O)N[C@@H](CC(C)C)C(=O)N[C@@H](CC(=O)O)C(=O)N[C@@H](CCC(=O)O)C(=O)N[C@@H](CC(C)C)C(=O)NCC(=O)N[C@@H](Cc1c[nH]cn1)C(=O)N[C@@H](C)C(=O)N[C@@H](CCC(=O)O)C(=O)N[C@@H](C)C(=O)N[C@@H](CO)C(=O)N[C@@H](CCSC)C(=O)N[C@@H](CCCNC(=N)N)C(=O)N[C@H](C(=O)N[C@@H](CCC(=O)O)C(=O)N[C@@H](CC(=O)O)C(=O)N[C@@H](CC(C)C)C(=O)N[C@H](C(=O)N[C@@H](Cc1ccc(O)cc1)C(=O)N[C@@H](CCC(=O)O)C(=O)N[C@@H](Cc1ccccc1)C(=O)N[C@@H](CCSC)C(=O)N[C@@H](CCCCN)C(N)=O)[C@@H](C)CC)C(C)C` [LP4X] (X1-[X2][PEG4]DKEWILQKIYELMRILDELGHAEASMRVEDLIYEFMK-NH2) yielded an IC50 of 400 ± 60 nM.

As to `CC[C@H](C)[C@H](NC(=O)[C@H](CCCNC(=N)N)NC(=O)[C@H](CCSC)NC(=O)[C@H](CC(C)C)NC(=O)[C@H](CCC(=O)O)NC(=O)[C@H](Cc1ccc(O)cc1)NC(=O)[C@@H](NC(=O)[C@H](CCCCN)NC(=O)[C@H](CCC(N)=O)NC(=O)[C@H](CC(C)C)NC(=O)[C@@H](NC(=O)[C@H](Cc1c[nH]c2ccccc12)NC(=O)[C@H](CCC(=O)O)NC(=O)[C@H](CCCCN)NC(=O)[C@H](CC(=O)O)NC(=O)CCOCCOCCOCCOCCNC(=O)Cn1cc(CNC(=O)COC(=O)Cc2ccc(OC(=O)c3ccc(NC(=N)N)cc3)cc2)nn1)[C@@H](C)CC)[C@@H](C)CC)C(=O)N[C@@H](CC(C)C)C(=O)N[C@@H](CC(=O)O)C(=O)N[C@@H](CCC(=O)O)C(=O)N[C@@H](CC(C)C)C(=O)NCC(=O)N[C@@H](Cc1c[nH]cn1)C(=O)N[C@@H](C)C(=O)N[C@@H](CCC(=O)O)C(=O)N[C@@H](C)C(=O)N[C@@H](CO)C(=O)N[C@@H](CCSC)C(=O)N[C@@H](CCCNC(=N)N)C(=O)N[C@H](C(=O)N[C@@H](CCC(=O)O)C(=O)N[C@@H](CC(=O)O)C(=O)N[C@@H](CC(C)C)C(=O)N[C@H](C(=O)N[C@@H](Cc1ccc(O)cc1)C(=O)N[C@@H](CCC(=O)O)C(=O)N[C@@H](Cc1ccccc1)C(=O)N[C@@H](CCSC)C(=O)N[C@@H](CCCCN)C(N)=O)[C@@H](C)CC)C(C)C` [LP4Z] (X1-[X3][PEG4]DKEWILQKIYELMRILDELGHAEASMRVEDLIYEFMK-NH2), the IC50 is 450 ± 200 nM.

The compound `CC[C@H](C)[C@H](NC(=O)[C@H](CCCNC(=N)N)NC(=O)[C@H](CCSC)NC(=O)[C@H](CC(C)C)NC(=O)[C@H](CCC(=O)O)NC(=O)[C@H](Cc1ccc(O)cc1)NC(=O)[C@@H](NC(=O)[C@H](CCCCN)NC(=O)[C@H](CCC(N)=O)NC(=O)[C@H](CC(C)C)NC(=O)[C@@H](NC(=O)[C@H](Cc1c[nH]c2ccccc12)NC(=O)[C@H](CCC(=O)O)NC(=O)[C@H](CCCCN)NC(=O)[C@H](CC(=O)O)NC(=O)CCOCCOCCOCCOCCOCCOCCOCCOCCOCCOCCOCCOCCOCCOCCOCCOCCOCCOCCOCCOCCOCCOCCOCCOCCNC(=O)Cn1cc(CN(C)C(=O)COC(=O)Cc2ccc(OC(=O)c3ccc(NC(=N)N)cc3)cc2)nn1)[C@@H](C)CC)[C@@H](C)CC)C(=O)N[C@@H](CC(C)C)C(=O)N[C@@H](CC(=O)O)C(=O)N[C@@H](CCC(=O)O)C(=O)N[C@@H](CC(C)C)C(=O)NCC(=O)N[C@@H](Cc1c[nH]cn1)C(=O)N[C@@H](C)C(=O)N[C@@H](CCC(=O)O)C(=O)N[C@@H](C)C(=O)N[C@@H](CO)C(=O)N[C@@H](CCSC)C(=O)N[C@@H](CCCNC(=N)N)C(=O)N[C@H](C(=O)N[C@@H](CCC(=O)O)C(=O)N[C@@H](CC(=O)O)C(=O)N[C@@H](CC(C)C)C(=O)N[C@H](C(=O)N[C@@H](Cc1ccc(O)cc1)C(=O)N[C@@H](CCC(=O)O)C(=O)N[C@@H](Cc1ccccc1)C(=O)N[C@@H](CCSC)C(=O)N[C@@H](CCCCN)C(N)=O)[C@@H](C)CC)C(C)C` [LP24X] (X1-[X2][PEG24]DKEWILQKIYELMRILDELGHAEASMRVEDLIYEFMK-NH2) registered an IC50 of 320 ± 30 nM.

For `CC[C@H](C)[C@H](NC(=O)[C@H](CCCNC(=N)N)NC(=O)[C@H](CCSC)NC(=O)[C@H](CC(C)C)NC(=O)[C@H](CCC(=O)O)NC(=O)[C@H](Cc1ccc(O)cc1)NC(=O)[C@@H](NC(=O)[C@H](CCCCN)NC(=O)[C@H](CCC(N)=O)NC(=O)[C@H](CC(C)C)NC(=O)[C@@H](NC(=O)[C@H](Cc1c[nH]c2ccccc12)NC(=O)[C@H](CCC(=O)O)NC(=O)[C@H](CCCCN)NC(=O)[C@H](CC(=O)O)NC(=O)CCOCCOCCOCCOCCOCCOCCOCCOCCOCCOCCOCCOCCOCCOCCOCCOCCOCCOCCOCCOCCOCCOCCOCCOCCNC(=O)Cn1cc(CNC(=O)COC(=O)Cc2ccc(OC(=O)c3ccc(NC(=N)N)cc3)cc2)nn1)[C@@H](C)CC)[C@@H](C)CC)C(=O)N[C@@H](CC(C)C)C(=O)N[C@@H](CC(=O)O)C(=O)N[C@@H](CCC(=O)O)C(=O)N[C@@H](CC(C)C)C(=O)NCC(=O)N[C@@H](Cc1c[nH]cn1)C(=O)N[C@@H](C)C(=O)N[C@@H](CCC(=O)O)C(=O)N[C@@H](C)C(=O)N[C@@H](CO)C(=O)N[C@@H](CCSC)C(=O)N[C@@H](CCCNC(=N)N)C(=O)N[C@H](C(=O)N[C@@H](CCC(=O)O)C(=O)N[C@@H](CC(=O)O)C(=O)N[C@@H](CC(C)C)C(=O)N[C@H](C(=O)N[C@@H](Cc1ccc(O)cc1)C(=O)N[C@@H](CCC(=O)O)C(=O)N[C@@H](Cc1ccccc1)C(=O)N[C@@H](CCSC)C(=O)N[C@@H](CCCCN)C(N)=O)[C@@H](C)CC)C(C)C` [LP24Z] (X1-[X3][PEG24]DKEWILQKIYELMRILDELGHAEASMRVEDLIYEFMK-NH2), the IC50 is 330 ± 10 nM.

In turn, “Ac-DKEWILQKIYELMRILDELGHAEASMRVEDLIYEFMK-NH2 [LCB1T, reference compound]” yielded an IC50 of 440 ± 40 nM.

The test system of another test is wild-type SARS-CoV-2 PsV. Briefly: microbe, parasite or virus in culture. The conditions noted are these: Severe acute respiratory syndrome coronavirus 2, Caco-2.
Compound `CN(C)C(=O)COC(=O)Cc1ccc(OC(=O)c2ccc(NC(=N)N)cc2)cc1` [Camostat] showed an IC50 of 4600 ± 2320 nM.

By IC50 is commonly meant the concentration that gives 50% inhibition. A low value points to higher potency.
